The record followed here is ChEMBL document CHEMBL2157953, “Identification of aminopyridazine-derived antineuroinflammatory agents effective in an Alzheimer's mouse model” (ACS Med Chem Lett, 2012).

What is called IC50 is the midpoint of a concentration-inhibition curve. As a reminder, the Tmax is the time from dosing to the highest level. In general, bioavailability refers to dose-corrected exposure relative to a reference, in per cent.

Calls of active or inactive are those of the source. The rule behind the calls is not given here.

One series deals with BV-2. Description: Antineuroinflammatory activity in mouse BV2 cells assessed as inhibition of LPS-induced IL-1beta production after 16 hrs by ELISA. To be noted: BV-2, 16 h. Type of series: functional, cell-based. Background: ELISA stands for enzyme-linked immunosorbent assay.
Series [1] has as its system Mus musculus. Description: Antialzheimer activity in Kunming mouse assessed as reversal of amyloid beta (1 to 42)-induced decrease of swimming time spent in target quadrant at 0.65 mg/kg, po qd measured on day 13 by morris water maze test. Also on record: dose 0.65 mg/kg. Type of series: functional, organism-based.
Series [2] has as its system Mus musculus. In words: Antialzheimer activity in Kunming mouse assessed as reversal of amyloid beta (1 to 42)-induced decrease of swimming percentage of path length at 0.656 mg/kg, po qd measured on day 13 by morris water maze test. Also on record: dose 0.656 mg/kg. The class given is functional, organism-based.
The test system of series [3] is Mus musculus. Description: Antialzheimer activity in Kunming mouse assessed as reversal of amyloid beta (1 to 42)-induced impairments in spartial recognition memory at 0.65 mg/kg, po qd measured on day 3 and 4 by morris water maze test. The class given is functional, organism-based. Also noted: dose 0.65 mg/kg.
Series [4] concerns Mus musculus. In words: Antialzheimer activity in Kunming mouse assessed as reversal of amyloid beta (1 to 42)-induced impairments in spartial recognition memory at 2.5 mg/kg, po qd measured on day 3 and 4 by morris water maze test. Type of series: functional, organism-based. Also on record: dose 2.5 mg/kg.
Series [5] in a line: Tmax in rat brain at 2.5 mg/kg, po. The class given is ADME, organism-based. Also on record: dose 2.5 mg/kg, route oral.
Series [6] relates to Mus musculus. In words: Antialzheimer activity in Kunming mouse assessed as reversal of amyloid beta (1 to 42)-induced decrease of swimming time spent in target quadrant at 2.5 mg/kg, po qd measured on day 13 by morris water maze test. Also on record: dose 2.5 mg/kg. Type of series: functional, organism-based.
The subject of series [7] is Mus musculus. In words: Antialzheimer activity in Kunming mouse assessed as reversal of amyloid beta (1 to 42)-induced decrease of swimming percentage of path length at 2.5 mg/kg, po qd measured on day 13 by morris water maze test. The class given is functional, organism-based. Also noted: dose 2.5 mg/kg.
The nature of series [8]: Oral bioavailability in rat at 2.5 mg/kg. The class given is ADME, organism-based. To be noted: in vivo.

Take `Cc1cc(-c2ccnc3ccccc23)nnc1N1CCN(c2ncccn2)CC1`: the IC50 with BV-2 amounted to 66.5 µM.

For the compound `COc1cc2c(cc1OC)C(=O)C(CC1CCN(Cc3ccccc3)CC1)C2` (configuration not stated), the outcome in the series with Mus musculus [1], with Mus musculus [2] and with Mus musculus [3] was Active.

In the case of `COc1cccc(-c2cc(C)c(N3CCN(c4ncccn4)CC3)nn2)c1`, in the series on BV-2, the IC50 came to 2.6 µM.

Consider `Cc1ccc(-c2cc(C)c(N3CCN(c4ncccn4)CC3)nn2)cc1`, for which the IC50 with BV-2 was 17.2 µM.

For the compound `Cc1cc(Cl)nnc1N1CCN(c2ncccn2)CC1`, the IC50 in the series with BV-2 is above 100 µM.

Take `Cc1cc(C(C)C)nnc1N1CCN(c2ncccn2)CC1`: the IC50 in the series on BV-2 is above 100 µM.

As for `Cc1cc(-c2cccc(F)c2)nnc1N1CCN(c2ncccn2)CC1`, the IC50 in the series with BV-2 was found to be 33.5 µM.

For `Cc1cc(-c2ccc(F)cc2)nnc1N1CCN(c2ncccn2)CC1`, in the series with BV-2, the IC50 came out at 76.3 µM.

For `Cc1cc(-c2ccsc2)nnc1N1CCN(c2ncccn2)CC1`, the outcome in the series with Mus musculus [4], in the series with Mus musculus [6] and in the series with Mus musculus [7] was Active. The Tmax in [5] is 19.8 min. In series [8], the bioavailability was 17.4%. The IC50 in the series with BV-2 turned out to be 2.4 µM.

Regarding `Cc1cc(-c2cccnc2)nnc1N1CCN(c2ncccn2)CC1`, the IC50 in the series on BV-2 was above 100 µM.

For the compound `COc1ncc(-c2cc(C)c(N3CCN(c4ncccn4)CC3)nn2)c(OC)n1`, the IC50 in the series with BV-2 is above 100 µM.

For the compound `Cc1cc(-c2ccc(C(F)(F)F)cc2)nnc1N1CCN(c2ncccn2)CC1`, in the series with BV-2, the IC50 amounted to 37.4 µM.

Regarding `Cc1cc(-c2ccccc2)nnc1N1CCN(c2ncccn2)CC1`, the 50% inhibitory concentration (IC50) with BV-2 came to 11.4 µM.

Turning to `Cc1cc(-c2cncnc2)nnc1N1CCN(c2ncccn2)CC1`, the half-inhibitory concentration (IC50) with BV-2 is above 100 µM.

Turning to `Cc1cc(-c2ccc3[nH]ccc3c2)nnc1N1CCN(c2ncccn2)CC1`, the IC50 in the series on BV-2 was determined as 85.1 µM.

Regarding `Cc1cc(-c2cc3ccccc3s2)nnc1N1CCN(c2ncccn2)CC1`, the IC50 in the series on BV-2 was 24.9 µM.

Take `Cc1cc(-c2ccncc2)nnc1N1CCN(c2ncccn2)CC1`: the IC50 in the series with BV-2 is above 100 µM.

`Cc1cc(C)c(N2CCN(c3ncccn3)CC2)nn1`: in the series on BV-2, the IC50 is above 100 µM.

Consider `Cc1ccnnc1N1CCN(c2ncccn2)CC1`, for which the IC50 in the series on BV-2 is above 100 µM.

Consider `COc1ccc(-c2cc(C)c(N3CCN(c4ncccn4)CC3)nn2)cc1`, for which the IC50 in the series on BV-2 was 5.2 µM.
